Laboratory results taken from US20240226128A1, “NOVEL COMPOUNDS WITH DUAL INHIBITION ACTIVITY AGAINST SARS-COV-2 CRITICAL ENZYMES RDRP, MPRO AND HUMAN TMPRSS2” (priority 2022, published 2024).

Columns and labels:
SARS-CoV-2 = conditions: comparator, FDA approved drug; cited from earlier work
[1] = system: SARS-CoV-2 (NRC-03-nhCoV strain); experiment: In vitro anti-SARS-CoV-2 activity of RH 1-23 compounds (Vero-E6 cells, crystal violet); type: cell-based
Procedure: The antiviral activity was carried out as previously described. Briefly, 96-well tissue culture plates were seeded with 2.4×10^4 Vero-E6 cells/and incubated overnight in Dulbecco's Modified Eagle's medium (DMEM) containing 10% Fetal Bovine Serum (FBS) and 1% penicillin/streptomycin antibiotic mixture at a humidified 37° C. incubator under 5% CO2. The cells were treated with SARS-CoV-2 (NRC-03-nhCoV strain, accession #EPI_ISL_430820) for viral adsorption, which was further overlaid with 50 μl DMEM containing varying concentrations of the tested compounds. Following incubation at 37° C. and 5% C02 for 72 h, the cells were fixed with 100 μl of 4% paraformaldehyde for 20 min and stained at room temperature with 0.1% crystal violet in distilled water for 15 min. The crystal violet dye was then dissolved in 100 μl methanol and the optical density of the obtained color was measured at 570 nm using Anthos Zenyth 200 rt plate reader (Anthos Labtec Instruments, Heerhugowaard, Netherlands).

Row | Compound | in vitro antiviral activity against SARS-CoV-2 (SARS-CoV-2) | in vitro antiviral activity against SARS-CoV-2 [1]
1 | CC(C)C(=O)OC[C@H]1O[C@@H](n2ccc(NO)nc2=O)[C@H](O)[C@@H]1O [Molnupiravir] | μM range | 
2 | N#C[C@@]1(c2ccc3c(NC(=O)c4ccc(NC(=N)N)cc4)ncnn23)O[C@H](CO)[C@@H](O)[C@H]1O [RH11, (2R,3R,4S,5R)-N-[7-(2-cyano-3,4-dihydroxy-5-hydroxymethyl-tetrahydro-furan-2-yl)-pyrrolo[2,1-f]-[1,2,4]-triazin-4-yl]-4-guanidino-benzamide] |  | nM range
3 | CC(C)c1cc(=O)oc2ccc(OC(=O)c3ccc(NC(=N)N)cc3)cc12 [RH12, 4-guanidino-benzoic acid 4-isopropyl-2-oxo-2H-chromen-6-yl ester] |  | nM range
